According to patent publication US20210120812A1, “FRESHNESS-RETENTIVE FILM” (MITSUI CHEMICALS TOHCELLO, INC., priority 2013, published 2021):

Tested on: Escherichia coli (E. coli)
Assay: Antibacterial test according to JIS Z2801 using E. coli (film surface not wiped with alcohol)
Assay type: cell-based
Settings: judgement in the text
Description: For example, in an antibacterial test according to JIS Z2801, a predetermined amount of Escherichia coli (E. coli) or the like is added to a 1/500 nutrient broth. The nutrient broth is dropped onto the surface of the film of a 4 cm square, and is covered with a polyethylene film. The sample is placed at 35° C. After 24 hours, the surface of the freshness-retentive film is washed to recover the nutrient broth. The number of bacterial cells is measured with a nutrient agar. In this test method, alkyldiethanolamine should be diffused in the nutrient broth (solution) in a concentration of 30 ppm or more.
An antibacterial test was performed using Escherichia coli (E. coli) according to JIS Z2801. To keep the state of the surface of the freshness-retentive film, the surface thereof was not wiped with alcohol.
Predetermined amounts of Escherichia coli (E. coli), Staphylococcus aureus, Salmonella, and Vibrio parahaemolyticus (broth (0.4 cc) used in a JIS test) were added to a 1/500 nutrient broth. The nutrient broth was dropped onto the surface of a freshness-retentive film of a 4 cm square, and was covered with a polyethylene film. The film was placed at 35° C., and after 24 hours, the surface of the freshness-retentive film was washed. The washing liquid containing the nutrient broth was recovered, and was cultured on a nutrient agar. The number of colonies was counted.
Since the number of bacterial cells is difficult to count under a microscope, the number of colonies was visually counted. The number of colonies per gram (g) was defined as the number of living bacterial cells CFU (colony forming unit) (unit: [colonies/g]). A sample sandwiched between two polyethylene films was used as a control (Control) for comparison. In Tables, the averages at n=1 to 3 are also shown. If a fluctuation in the measured values is 10 times or more, the average is not calculated according to the JIS specification.
An antibacterial test was performed in the same manner as in Experiment 1.
An antibacterial test was performed in the same manner as in Experiment 1. […]

| Compound | antibacterial characteristics against E. coli (in words) |
| --- | --- |
| CCCCCCCCCCCCCCCCCC(=O)OCC(O)CO (stereo not drawn) [glycerol monostearate] | inhibits the antibacterial activity of stearyldiethanolamine |
| CCCCCCCCCCCCCCCCCCN(CCO)CCO [stearyldiethanolamine] | significantly superior to those of stearyldiethanolamine monostearate |
| diglycerol monopalmitate | does not inhibit the antibacterial activity of stearyldiethanolamine |
